Experiments:
Experiment in all cases: biochemical
Parameters in all cases: Thermo Fisher SelectScreen kinase panel: Z'-LYTE and Adapta activity, LanthaScreen binding
[1] = target: DYRK3 (Homo sapiens, UniProt O43781)
Outline: (§1)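 Single-concentration panel: 10 µM GNE684 in KINOMEscan scanMAX binding (468 kinases) and in a 221-kinase panel run as Z'-LYTE/Adapta activity or LanthaScreen binding assays.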

[2] = target: T1, CaMKII_beta (Homo sapiens, UniProt Q13554)
T1 construct: gene CAMK2B
Outline: as §1

[3] = target: T2, MSSK1 (Homo sapiens, UniProt Q9UPE1)
T2 construct: gene SRPK3
Outline: as §1

[4] = target: FLT4 (Homo sapiens, UniProt P35916)
Chain of FLT4 (P35916 whole entry): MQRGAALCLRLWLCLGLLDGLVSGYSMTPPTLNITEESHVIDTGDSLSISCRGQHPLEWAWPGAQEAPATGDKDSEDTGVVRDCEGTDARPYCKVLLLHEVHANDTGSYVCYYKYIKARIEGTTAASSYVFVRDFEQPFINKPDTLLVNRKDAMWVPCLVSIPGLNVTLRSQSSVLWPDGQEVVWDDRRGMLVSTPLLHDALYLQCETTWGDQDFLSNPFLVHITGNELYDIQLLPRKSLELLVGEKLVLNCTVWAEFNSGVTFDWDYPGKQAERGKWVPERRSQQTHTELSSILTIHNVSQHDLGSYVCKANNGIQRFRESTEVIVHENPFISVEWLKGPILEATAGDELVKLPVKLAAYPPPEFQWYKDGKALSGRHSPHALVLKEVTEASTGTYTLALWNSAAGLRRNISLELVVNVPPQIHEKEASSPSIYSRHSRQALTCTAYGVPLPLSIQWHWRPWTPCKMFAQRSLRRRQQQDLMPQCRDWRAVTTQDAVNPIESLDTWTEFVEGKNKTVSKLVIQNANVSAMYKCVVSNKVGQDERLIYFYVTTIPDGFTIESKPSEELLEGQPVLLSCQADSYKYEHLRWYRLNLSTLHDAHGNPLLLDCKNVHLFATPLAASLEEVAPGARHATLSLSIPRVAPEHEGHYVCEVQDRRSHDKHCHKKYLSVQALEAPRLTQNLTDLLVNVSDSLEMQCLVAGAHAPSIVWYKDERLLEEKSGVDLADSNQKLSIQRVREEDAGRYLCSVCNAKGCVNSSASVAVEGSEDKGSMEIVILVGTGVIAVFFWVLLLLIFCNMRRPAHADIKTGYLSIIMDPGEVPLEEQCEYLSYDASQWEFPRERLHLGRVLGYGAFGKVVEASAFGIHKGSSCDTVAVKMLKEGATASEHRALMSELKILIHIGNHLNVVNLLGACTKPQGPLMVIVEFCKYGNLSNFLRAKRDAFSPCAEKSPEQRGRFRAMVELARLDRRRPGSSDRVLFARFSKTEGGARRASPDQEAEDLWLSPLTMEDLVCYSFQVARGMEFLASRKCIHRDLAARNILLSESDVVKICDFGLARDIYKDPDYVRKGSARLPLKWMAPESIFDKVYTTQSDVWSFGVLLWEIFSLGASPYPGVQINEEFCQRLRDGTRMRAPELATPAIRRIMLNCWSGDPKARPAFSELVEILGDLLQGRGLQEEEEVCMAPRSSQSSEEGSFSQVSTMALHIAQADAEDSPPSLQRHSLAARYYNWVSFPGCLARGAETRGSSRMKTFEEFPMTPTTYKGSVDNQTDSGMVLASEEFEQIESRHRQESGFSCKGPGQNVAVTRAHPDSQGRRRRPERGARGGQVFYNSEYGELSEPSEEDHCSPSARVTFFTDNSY
Outline: as §1

[5] = target: PRKAA1 (Homo sapiens, UniProt Q13131)
Outline: as §1

[6] = target: T3, IKK-alpha (Homo sapiens, UniProt O15111)
T3 construct: gene CHUK
Outline: as §1

[7] = target: CLK4 (Homo sapiens, UniProt Q9HAZ1)
Outline: as §1

[8] = target: T4, PKC_alpha (Homo sapiens, UniProt P17252)
T4 construct: gene PRKCA
Outline: as §1

[9] = target: T5, IKK-epsilon (Homo sapiens, UniProt Q14164)
T5 construct: gene IKBKE
Outline: as §1

[10] = target: T6, PDK1(direct) (Homo sapiens, UniProt O15530)
T6 construct: gene PDPK1; direct
Outline: as §1

[11] = target: T7, CHK2 (Homo sapiens, UniProt O96017)
T7 construct: gene CHEK2
Outline: as §1

[12] = target: DDR1 (Homo sapiens, UniProt Q08345)
Outline: as §1

[13] = target: RAF1(Y340D,Y341D) (Homo sapiens, UniProt P04049, Y340D/Y341D)
Chain of RAF1(Y340D,Y341D) (P04049 whole entry Y340D/Y341D): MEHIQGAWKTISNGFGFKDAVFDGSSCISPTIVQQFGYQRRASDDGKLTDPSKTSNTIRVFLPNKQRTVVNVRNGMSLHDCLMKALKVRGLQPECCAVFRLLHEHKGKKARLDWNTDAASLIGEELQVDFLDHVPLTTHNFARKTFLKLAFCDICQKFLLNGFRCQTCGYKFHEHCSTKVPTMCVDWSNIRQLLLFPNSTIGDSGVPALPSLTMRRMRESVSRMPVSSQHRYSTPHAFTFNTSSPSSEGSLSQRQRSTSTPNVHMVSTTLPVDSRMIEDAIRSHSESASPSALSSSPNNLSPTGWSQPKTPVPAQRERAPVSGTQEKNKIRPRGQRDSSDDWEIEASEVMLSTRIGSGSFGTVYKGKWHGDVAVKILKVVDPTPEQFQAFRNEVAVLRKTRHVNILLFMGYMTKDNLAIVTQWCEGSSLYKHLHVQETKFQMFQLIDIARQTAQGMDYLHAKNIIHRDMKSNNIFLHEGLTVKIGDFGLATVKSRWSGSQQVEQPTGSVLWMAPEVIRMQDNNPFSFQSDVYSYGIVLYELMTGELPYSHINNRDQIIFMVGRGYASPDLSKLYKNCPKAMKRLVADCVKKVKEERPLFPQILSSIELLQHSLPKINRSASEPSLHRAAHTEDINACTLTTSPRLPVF
Outline: as §1

[14] = target: T8, PI3K-G (Homo sapiens, UniProt P48736)
T8 construct: gene PIK3CG; p110gamma
Outline: as §1

[15] = target: FGFR4 (Homo sapiens, UniProt P22455)
Outline: as §1

[16] = target: FLT1 (Homo sapiens, UniProt P17948)
Outline: as §1

[17] = target: BMX (Homo sapiens, UniProt P51813)
Chain of BMX (P51813 whole entry): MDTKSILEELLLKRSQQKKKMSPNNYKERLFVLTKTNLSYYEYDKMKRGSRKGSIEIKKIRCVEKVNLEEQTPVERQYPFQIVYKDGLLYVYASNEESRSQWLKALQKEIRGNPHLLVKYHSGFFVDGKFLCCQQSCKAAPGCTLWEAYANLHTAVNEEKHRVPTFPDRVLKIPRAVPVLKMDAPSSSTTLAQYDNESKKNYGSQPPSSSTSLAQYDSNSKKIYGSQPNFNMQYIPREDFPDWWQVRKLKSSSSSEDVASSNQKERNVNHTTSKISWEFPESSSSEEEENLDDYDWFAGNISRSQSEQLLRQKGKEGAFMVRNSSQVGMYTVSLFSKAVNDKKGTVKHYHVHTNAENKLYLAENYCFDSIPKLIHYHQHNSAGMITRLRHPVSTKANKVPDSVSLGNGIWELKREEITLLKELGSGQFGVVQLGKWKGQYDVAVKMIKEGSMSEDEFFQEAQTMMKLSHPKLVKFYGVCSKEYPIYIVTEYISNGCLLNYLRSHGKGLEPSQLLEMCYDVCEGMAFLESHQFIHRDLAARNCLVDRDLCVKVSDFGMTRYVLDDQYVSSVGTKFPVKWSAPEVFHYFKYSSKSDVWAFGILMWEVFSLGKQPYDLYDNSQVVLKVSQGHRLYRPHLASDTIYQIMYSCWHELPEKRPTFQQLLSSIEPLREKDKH
Outline: as §1

[18] = target: CDK8/cyclinC (Homo sapiens, UniProt P49336)
Outline: as §1

[19] = target: DMPK (Homo sapiens, UniProt Q09013)
Chain of DMPK (Q09013 whole entry): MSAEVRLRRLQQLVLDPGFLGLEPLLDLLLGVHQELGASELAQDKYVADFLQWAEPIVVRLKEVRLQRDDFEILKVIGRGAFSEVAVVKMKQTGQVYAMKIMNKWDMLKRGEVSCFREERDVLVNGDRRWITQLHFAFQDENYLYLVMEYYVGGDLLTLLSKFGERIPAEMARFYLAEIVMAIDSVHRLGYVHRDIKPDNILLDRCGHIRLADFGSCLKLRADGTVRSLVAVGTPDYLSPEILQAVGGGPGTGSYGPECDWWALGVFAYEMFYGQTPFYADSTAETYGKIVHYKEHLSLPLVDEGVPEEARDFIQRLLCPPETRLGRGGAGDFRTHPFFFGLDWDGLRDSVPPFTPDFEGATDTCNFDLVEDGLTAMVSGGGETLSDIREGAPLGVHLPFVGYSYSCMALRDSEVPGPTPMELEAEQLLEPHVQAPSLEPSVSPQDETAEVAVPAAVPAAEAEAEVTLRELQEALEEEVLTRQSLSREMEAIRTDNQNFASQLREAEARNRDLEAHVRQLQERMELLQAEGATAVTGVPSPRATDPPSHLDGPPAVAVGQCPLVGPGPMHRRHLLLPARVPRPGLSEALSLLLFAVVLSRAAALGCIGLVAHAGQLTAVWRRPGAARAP
Outline: as §1

[20] = target: T9, MEK1 (Homo sapiens, UniProt Q02750)
T9 construct: gene MAP2K1
T9 sequence (Q02750 whole entry): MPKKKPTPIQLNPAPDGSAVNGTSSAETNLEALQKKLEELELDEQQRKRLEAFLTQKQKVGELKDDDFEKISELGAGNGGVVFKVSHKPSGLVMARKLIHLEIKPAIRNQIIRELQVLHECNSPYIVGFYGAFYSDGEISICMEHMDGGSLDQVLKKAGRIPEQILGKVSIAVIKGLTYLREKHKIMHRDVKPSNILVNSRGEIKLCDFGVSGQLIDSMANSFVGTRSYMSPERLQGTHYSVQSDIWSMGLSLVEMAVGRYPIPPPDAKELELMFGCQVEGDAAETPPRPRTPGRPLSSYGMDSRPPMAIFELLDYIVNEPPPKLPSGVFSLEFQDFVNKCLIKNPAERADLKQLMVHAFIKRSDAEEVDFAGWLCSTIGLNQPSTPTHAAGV
Outline: as §1

[21] = target: RET (Homo sapiens, UniProt P07949)
Outline: as §1

[22] = target: T10, TRKB (Homo sapiens, UniProt Q16620)
T10 construct: gene NTRK2
Outline: as §1

[23] = target: T11, PKG1_alpha (Homo sapiens, UniProt Q13976)
T11 construct: gene PRKG1; isoform alpha
Outline: as §1

Chain of DYRK3 (O43781 whole entry): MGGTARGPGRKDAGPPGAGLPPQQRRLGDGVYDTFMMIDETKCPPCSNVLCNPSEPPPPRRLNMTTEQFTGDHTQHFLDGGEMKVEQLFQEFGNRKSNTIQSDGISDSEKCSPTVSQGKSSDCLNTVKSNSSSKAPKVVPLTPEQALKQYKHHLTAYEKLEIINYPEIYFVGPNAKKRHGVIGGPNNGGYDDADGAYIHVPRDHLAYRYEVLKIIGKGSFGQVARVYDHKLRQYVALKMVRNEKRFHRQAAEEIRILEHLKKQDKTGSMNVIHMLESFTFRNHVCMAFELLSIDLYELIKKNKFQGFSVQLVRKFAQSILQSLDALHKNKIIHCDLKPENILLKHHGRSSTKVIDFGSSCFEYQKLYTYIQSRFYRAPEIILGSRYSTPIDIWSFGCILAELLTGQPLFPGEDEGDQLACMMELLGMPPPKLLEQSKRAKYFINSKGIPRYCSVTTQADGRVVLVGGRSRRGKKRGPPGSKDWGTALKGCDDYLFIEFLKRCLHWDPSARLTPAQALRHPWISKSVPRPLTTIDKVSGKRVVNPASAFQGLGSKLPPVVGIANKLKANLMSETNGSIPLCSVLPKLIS
T1 sequence (Q13554 whole entry): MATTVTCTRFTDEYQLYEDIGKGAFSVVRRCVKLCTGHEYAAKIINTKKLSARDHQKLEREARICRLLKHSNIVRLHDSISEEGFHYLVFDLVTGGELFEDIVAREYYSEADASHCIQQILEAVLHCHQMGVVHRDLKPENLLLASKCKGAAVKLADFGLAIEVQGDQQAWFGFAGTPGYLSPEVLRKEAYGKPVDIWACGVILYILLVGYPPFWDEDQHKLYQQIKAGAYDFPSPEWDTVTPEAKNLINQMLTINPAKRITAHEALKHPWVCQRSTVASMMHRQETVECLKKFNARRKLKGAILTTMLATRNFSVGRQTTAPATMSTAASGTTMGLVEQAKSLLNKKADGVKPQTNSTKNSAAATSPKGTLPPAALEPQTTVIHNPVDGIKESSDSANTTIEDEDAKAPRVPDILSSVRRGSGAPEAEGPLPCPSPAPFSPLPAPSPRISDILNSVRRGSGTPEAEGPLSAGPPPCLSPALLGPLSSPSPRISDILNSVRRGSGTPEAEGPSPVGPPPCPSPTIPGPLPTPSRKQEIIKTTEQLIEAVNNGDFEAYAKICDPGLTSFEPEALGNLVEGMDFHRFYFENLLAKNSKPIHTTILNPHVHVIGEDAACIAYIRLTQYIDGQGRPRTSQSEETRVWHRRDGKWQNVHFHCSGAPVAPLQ

SMILES: COc1cc2c(cn1)N(C)C(=O)[C@@H](NC(=O)c1nc3n(n1)[C@H](c1ccccc1)CC3)CC2 [GNE684, (S)-N-((S)-7-methoxy-1-methyl-2-oxo-2,3,4,5-tetrahydro-1H-pyrido[3,4-b]azepin-3-yl)-5-phenyl-6,7-dihydro-5H-pyrrolo[1,2-b][1,2,4]triazole-2-carboxamide]
- inhibition at 10 µM [1]: 2%
- inhibition at 10 µM [2]: 2.5%
- inhibition at 10 µM [3]: 2.5%
- inhibition at 10 µM [4]: 14%
- inhibition at 10 µM [5]: -3%
- inhibition at 10 µM [6]: -3%
- inhibition at 10 µM [7]: 2.5%
- inhibition at 10 µM [8]: 3%
- inhibition at 10 µM [9]: 3%
- inhibition at 10 µM [10]: 5%
- inhibition at 10 µM [11]: 5%
- inhibition at 10 µM [12]: 4.5%
- inhibition at 10 µM [13]: -2%
- inhibition at 10 µM [14]: 13.5%
- inhibition at 10 µM [15]: -6.5%
- inhibition at 10 µM [16]: 3.5%
- inhibition at 10 µM [17]: 4.5%
- inhibition at 10 µM [18]: 4.5%
- inhibition at 10 µM [19]: -3%
- inhibition at 10 µM [20]: -7.5%
- inhibition at 10 µM [21]: 4%
- inhibition at 10 µM [22]: -5%
- inhibition at 10 µM [23]: 7%

— publication PMC7206119, “RIP1 inhibition blocks inflammatory diseases but not tumor growth or metastases” (Cell Death and Differentiation, 2019)
